# Measurements as given in patent US20240423992A1, “BIOMARKERS FOR TREATING LIVER DISORDERS WITH THR-B AGONISTS AND RELATED USES” (Madrigal Pharmaceuticals, Inc., priority 2023, published 2024).
# System: patients with Nonalcoholic Steatohepatitis
# Assay: Phase 3 trial in Nonalcoholic Steatohepatitis (Example 2): thyroid hormone levels
# Format: in vivo, human
# Protocol: A randomized, double-blind, placebo-controlled Phase 3 trial was conducted. Patients were randomly assigned to receive resmetirom 80 mg, resmetirom 100 mg, or placebo administered orally once daily. Screening biopsy results were used as baseline for histologic variables and a second biopsy was performed at Week 52.
# [1] = Resmetirom 80 mg, Week 52, not on thyroxine
# [2] = Resmetirom 80 mg, Week 52, thyroxine-treated
# [3] = Resmetirom 100 mg, Week 52, not on thyroxine
# [4] = Resmetirom 100 mg, Week 52, thyroxine-treated
structure (smiles),measurement,setting,value
"CC(C)c1cc(Oc2c(Cl)cc(-n3nc(C#N)c(=O)[nH]c3=O)cc2Cl)n[nH]c1=O [Resmetirom, 2-[3,5-dichloro-4-[(6-oxo-5-propan-2-yl-1H-pyridazin-3-yl)oxy]phenyl]-3,5-dioxo-1,2,4-triazine-6-carbonitrile]","FT3/rT3 CFB, LS Mean Difference from PBO","Resmetirom 80 mg, Week 52",0.06
same,FT3/rT3 LS Mean CFB (SE),"Resmetirom 80 mg, Week 52",0.06 (0.004)
same,"FT3 CFB, LS Mean Difference from PBO","Resmetirom 80 mg, Week 52",0.02 ng/L
same,FT3 LS Mean CFB (SE),"Resmetirom 80 mg, Week 52",−0.01 (0.030) ng/L
same,"FT4 % CFB, LS Mean Difference from PBO","Resmetirom 80 mg, Week 52",−16.6%
same,"FT4 CFB, LS Mean Difference from PBO","Resmetirom 80 mg, Week 52",-0.19 ng/dL
same,FT4 LS Mean % CFB (SE),"Resmetirom 80 mg, Week 52",−13.9 (0.96) %
same,FT4 LS Mean CFB (SE),"Resmetirom 80 mg, Week 52",−0.17 (0.011) ng/dL
same,"TBG CFB, LS Mean Difference from PBO","Resmetirom 80 mg, Week 52",-1.9 mg/L
same,TBG LS Mean CFB (SE),"Resmetirom 80 mg, Week 52",−0.32 (0.45) mg/L
same,"TSH CFB, LS Mean Difference from PBO","Resmetirom 80 mg, Week 52",−0.18 mIU/L
same,TSH LS Mean CFB (SE),"Resmetirom 80 mg, Week 52",−0.28 (0.059) mIU/L
same,"rT3 CFB, LS Mean Difference from PBO","Resmetirom 80 mg, Week 52",-4.73 ng/dL
same,rT3 LS Mean CFB (SE),"Resmetirom 80 mg, Week 52",−4.6 (0.31) ng/dL
same,"FT3/rT3 CFB, LS Mean Difference from PBO",[1],0.06
same,FT3/rT3 LS Mean CFB (SE),[1],0.06 (0.005)
same,"FT3 CFB, LS Mean Difference from PBO",[1],0.01 ng/L
same,FT3 LS Mean CFB (SE),[1],−0.01 (0.032) ng/L
same,"FT4 % CFB, LS Mean Difference from PBO",[1],−16.3%
same,"FT4 CFB, LS Mean Difference from PBO",[1],-0.18 ng/dL
same,FT4 LS Mean % CFB (SE),[1],−13.8 (0.97) %
same,FT4 LS Mean CFB (SE),[1],−0.16 (0.011) ng/dL
same,"TBG CFB, LS Mean Difference from PBO",[1],-1.8 mg/L
same,TBG LS Mean CFB (SE),[1],−0.19 (0.47) mg/L
same,"TSH CFB, LS Mean Difference from PBO",[1],−0.15 mIU/L
same,TSH LS Mean CFB (SE),[1],−0.23 (0.056) mIU/L
same,"rT3 CFB, LS Mean Difference from PBO",[1],-4.5 ng/dL
same,rT3 LS Mean CFB (SE),[1],−4.5 (0.33) ng/dL
same,"FT3/rT3 CFB, LS Mean Difference from PBO",[2],0.06
same,FT3/rT3 LS Mean CFB (SE),[2],0.05 (0.011)
same,"FT3 CFB, LS Mean Difference from PBO",[2],0.05 ng/L
same,FT3 LS Mean CFB (SE),[2],0.04 (0.089) ng/L
same,"FT4 % CFB, LS Mean Difference from PBO",[2],−17.9%
same,"FT4 CFB, LS Mean Difference from PBO",[2],-0.21 ng/dL
same,FT4 LS Mean % CFB (SE),[2],−14.0 (3.6) %
same,FT4 LS Mean CFB (SE),[2],−0.18 (0.041) ng/dL
same,"TBG CFB, LS Mean Difference from PBO",[2],-2.6 mg/L
same,TBG LS Mean CFB (SE),[2],−1.1 (1.4) mg/L
same,"TSH CFB, LS Mean Difference from PBO",[2],−0.41 mIU/L
same,TSH LS Mean CFB (SE),[2],−0.63 (0.27) mIU/L
same,"rT3 CFB, LS Mean Difference from PBO",[2],-5.1 ng/dL
same,rT3 LS Mean CFB (SE),[2],−5.1 (0.94) ng/dL
same,"FT3/rT3 CFB, LS Mean Difference from PBO","Resmetirom 100 mg, Week 52",0.07
same,FT3/rT3 LS Mean CFB (SE),"Resmetirom 100 mg, Week 52",0.06 (0.004)
same,"FT3 CFB, LS Mean Difference from PBO","Resmetirom 100 mg, Week 52",-0.05 ng/L
same,FT3 LS Mean CFB (SE),"Resmetirom 100 mg, Week 52",−0.08 (0.031) ng/L
same,"FT4 % CFB, LS Mean Difference from PBO","Resmetirom 100 mg, Week 52",−20.7%
same,"FT4 CFB, LS Mean Difference from PBO","Resmetirom 100 mg, Week 52",-0.24 ng/dL
same,FT4 LS Mean % CFB (SE),"Resmetirom 100 mg, Week 52",−18.1 (0.97) %
same,FT4 LS Mean CFB (SE),"Resmetirom 100 mg, Week 52",−0.22 (0.011) ng/dL
same,"TBG CFB, LS Mean Difference from PBO","Resmetirom 100 mg, Week 52",-2.2 mg/L
same,TBG LS Mean CFB (SE),"Resmetirom 100 mg, Week 52",−0.60 (0.45) mg/L
same,"TSH CFB, LS Mean Difference from PBO","Resmetirom 100 mg, Week 52",−0.10 mIU/L
same,TSH LS Mean CFB (SE),"Resmetirom 100 mg, Week 52",−0.20 (0.060) mIU/L
same,"rT3 CFB, LS Mean Difference from PBO","Resmetirom 100 mg, Week 52",-5.2 ng/dL
same,rT3 LS Mean CFB (SE),"Resmetirom 100 mg, Week 52",−5.1 (0.32) ng/dL
same,"FT3/rT3 CFB, LS Mean Difference from PBO",[3],0.07
same,FT3/rT3 LS Mean CFB (SE),[3],0.06 (0.005)
same,"FT3 CFB, LS Mean Difference from PBO",[3],-0.06 ng/L
same,FT3 LS Mean CFB (SE),[3],−0.08 (0.033) ng/L
same,"FT4 % CFB, LS Mean Difference from PBO",[3],−20.0%
same,"FT4 CFB, LS Mean Difference from PBO",[3],-0.23 ng/dL
same,FT4 LS Mean % CFB (SE),[3],−17.6 (1.0) %
same,FT4 LS Mean CFB (SE),[3],−0.21 (0.011) ng/dL
same,"TBG CFB, LS Mean Difference from PBO",[3],-1.8 mg/L
same,TBG LS Mean CFB (SE),[3],−0.21 (0.49) mg/L
same,"TSH CFB, LS Mean Difference from PBO",[3],−0.12 mIU/L
same,TSH LS Mean CFB (SE),[3],−0.20 (0.058) mIU/L
same,"rT3 CFB, LS Mean Difference from PBO",[3],-5.1 ng/dL
same,rT3 LS Mean CFB (SE),[3],−4.9 (0.34) ng/dL
same,"FT3/rT3 CFB, LS Mean Difference from PBO",[4],0.06
same,FT3/rT3 LS Mean CFB (SE),[4],0.06 (0.010)
same,"FT3 CFB, LS Mean Difference from PBO",[4],-0.01 ng/L
same,FT3 LS Mean CFB (SE),[4],−0.03 (0.081) ng/L
same,"FT4 % CFB, LS Mean Difference from PBO",[4],−24.4%
same,"FT4 CFB, LS Mean Difference from PBO",[4],-0.29 ng/dL
